Assays:
[1] = system: S. pneumoniae strains; assay: Streptonigrin disc sensitivity (zone of growth inhibition); assay type: cell-based
Description: (§1) For bacterial survival streptonigrin assays, stocks of S. pneumoniae strains grown in Chelex-THY broth and stored at −70° C. were defrosted on ice, pelleted by centrifugation at 20000 g at 4° C. and resuspended in THY to which 2.5 μg ml^−1 of streptonigrin (Sigma) was then added. The reactions were incubated at 37° C., and aliquots of the reaction cultures taken at 40 and 60 minutes after adding streptonigrin were diluted and plated. Cfu at each time point were expressed as a percentage of the cfu prior to adding streptonigrin and the results presented as a ratio of the wild-type strain's results. To assess sensitivity to streptonigrin discs, S. pneumoniae strain stocks cultured in Chelex-THY broth were plated on RPMIm plates with or without 50 μM FeCl3 and 400 μM DIP supplementation at a density of several thousand colonies per plate. Antibiotic discs impregnated with 5 μg streptonigrin were placed onto the plates. After incubation for 20 hours at 37° C. in 5% CO2, the width of the zone of growth inhibition surrounding each disc was measured and confidence intervals for three separate results calculated.

[2] = system: S. pneumoniae strains; assay: Streptonigrin bacterial survival assay; assay type: cell-based; details: 60 minutes incubation with 2.5 μg ml^-1 streptonigrin
Description: as §1

[3] = system: S. pneumoniae; assay: Sit1D and Sit2A immunisation experiment with IP S. pneumoniae challenge; assay type: in vivo; details: BALBc mice, 10 ug protein IP three times, challenged IP with 10,000 S. pneumoniae cells
Description: BALBc were mice given 10 ug of protein (expressed in pQE30 expression vectors in E. coli and purified using the His-tag) via IP, on three occasions separated by 7-10 days, and then challenged 2 weeks after the last immunisation with 10,000 S. pneumoniae cells inoculated IP.
The other proteins were Sit1D, Sit2A, Sit1D combined with Sit2A, Sit1D combined with Pdb, and Sit2A combined with Pbd.

For COC1=C(N)C(=O)c2nc(-c3nc(C(=O)O)c(C)c(-c4ccc(OC)c(OC)c4O)c3N)ccc2C1=O [streptonigrin], the “sensitivity to 5 ug streptonigrin discs” value ([1]; Sit1A-/Sit2A- double mutant, in the presence of 400 μM DIP) was “completely resistant”, the “zone of growth inhibition surrounding a streptonigrin disc, versus wild-type strain” value ([1]; Sit- strains on RPMIm plates) was “smaller” and the “fold more cells surviving than wild type cells” value ([2]; Sit1A- strain) was “Approximately 10 fold”. For the same molecule, the “fold more cells surviving than wild type cells” value ([2]; Sit1A-/Sit2A- strain) was ~1000 fold and the “fold more cells surviving than wild type cells” value ([2]; Sit2A- strain) was “Approximately 10 fold”.

B1: Sit1D: Protein encoded by S. pneumoniae gene Sit1D (SEQ ID NO. 8), putative iron-binding lipoprotein; His-tagged, expressed in E. coli (protein, listed as Salmonella pneumoniae)
chain: MKTSLKLYFTALVASFLLLLGACSTNSSTSQTETSSSAPTEVTIKSSLDEVKLSKVPEKIVTFDLGAADTIRALGFEKNIVGMPTKTVPTYLKDLVGTVKNVGSMKEPDLEAIAALEPDLIIASPRTQKFVDKFKEIAPTVLFQASKDDYWTSTKANIESLASAFGETGTQKAKEELTKLDKSIQEVATKNESSDKKALAILLNEGKMAAFGAKSRFSFLYQTLKFKPTDTKFEDSRHGQEVSFESVKEINPDILFVINRTLAIGGDNSSNDGVLENALIAETPAAKNGKIIQLTPDLWYLSGGGLESTKLMIEDIQKALK
modifications: His tag; CDS (1)..(966)
notes: His-tagged, expressed in E. coli
In the case of B1, the “protection against S. pneumoniae challenge (survival, FIG. 7)” value [3] is reported as “as protective as Pdb”.

Reference: patent US20090280141A1, “Streptococcal Genes” (priority 2000, published 2009)
